pIC50: −log10 of the molar value. The source made the active and inactive calls. The calls are words filed in the database; no cut-off is given here. Peptide text beside a SMILES is read from it. * marks the point of attachment. X1 = CC(=O)O[C@H]1C(=O)[C@@]2(C)[C@H]([C@H](OC(=O)c3ccccc3)[C@]3(O)C[C@H](OC(=O)[C@H](OC(=O)OCCS*)[C@@H](NC(=O)c4ccccc4)c4ccccc4)C(C)=C1C3(C)C)[C@]1(OC(C)=O)CO[C@@H]1C[C@@H]2O; X2 = NCCCC[C@H](N*)C(=O)NC(=O)C1CCC(=O)N1
What was measured:
MCF7 [1] = test: Antitumor activity against human MCF7 cells xenografted in BALB/c nude mouse assessed as reduction in tumor weight at 12 umol/kg, ip administered every two days for two weeks relative to control; format: functional; design: scale not given: the % may be the effect or the level left; details: dose 12 µmol/kg; time 2 weeks
[2] = target: 72 kDa type IV collagenase (Homo sapiens, UniProt P08253); test: Drug metabolism in PBS buffer assessed as MMP2 (unknown origin)-mediated PTX formation at 0.5 uM incubated for 2 hrs followed by GSH addition and measured after 2 hrs by LC-MS analysis; format: ADME; details: 4 h
Sequence of 72 kDa type IV collagenase (P08253 whole entry): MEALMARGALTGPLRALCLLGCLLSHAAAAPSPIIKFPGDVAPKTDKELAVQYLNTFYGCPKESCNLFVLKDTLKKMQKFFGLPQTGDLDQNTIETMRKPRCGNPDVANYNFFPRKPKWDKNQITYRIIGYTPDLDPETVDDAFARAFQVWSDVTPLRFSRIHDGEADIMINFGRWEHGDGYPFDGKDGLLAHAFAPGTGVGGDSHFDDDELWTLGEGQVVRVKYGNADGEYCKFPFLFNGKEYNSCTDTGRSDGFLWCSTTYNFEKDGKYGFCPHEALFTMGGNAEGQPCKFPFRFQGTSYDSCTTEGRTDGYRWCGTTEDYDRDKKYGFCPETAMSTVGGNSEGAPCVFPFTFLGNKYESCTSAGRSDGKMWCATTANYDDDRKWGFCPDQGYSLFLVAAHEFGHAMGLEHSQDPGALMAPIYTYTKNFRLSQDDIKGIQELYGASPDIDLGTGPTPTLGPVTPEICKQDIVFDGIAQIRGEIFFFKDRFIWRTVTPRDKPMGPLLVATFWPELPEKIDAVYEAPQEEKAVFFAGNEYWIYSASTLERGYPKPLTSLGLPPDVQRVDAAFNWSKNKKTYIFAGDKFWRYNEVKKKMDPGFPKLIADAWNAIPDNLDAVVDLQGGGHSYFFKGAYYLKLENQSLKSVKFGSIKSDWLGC

[3] = Cytotoxicity against human A2780/PTX cells assessed as reduction in cell viability measured after 48 hrs by MTT assay; format: functional, cell-based
[4] = Drug conversion in serum of BALB/c nude mouse xenografted with human MCF7 cells assessed as T2-PTX formation at 8 to 12 umol/kg, ip measured after 2 hrs by LC-MS analysis; format: ADME, organism-based; details: in vivo, dose 8-12 µmol/kg
[5] = Drug conversion in serum of BALB/c nude mouse xenografted with human MCF7 cells assessed as PTX formation at 8 to 12 umol/kg, ip measured after 2 hrs by LC-MS analysis; format: ADME, organism-based; details: in vivo, dose 8-12 µmol/kg
[6] = Drug uptake in human MCF7 cells at 20 nM measured after 4 hrs in presence of MMP inhibitor ilomastat and LHRH by LC-MS analysis; format: ADME, cell-based; details: mcf7, 4 h, 0.02 µM
MCF7 [7] = test: Induction of mitochondrial membrane potential loss in human MCF7 cells at IC50 measured after 4 hrs by JC-1 staining based flow cytometry; format: functional, cell-based
HEK293 = test: Cytotoxicity against HEK293 cells assessed as reduction in cell viability measured after 48 hrs by MTT assay; format: cell-based; details: Homo sapiens, HEK293, 48 h
MCF7 [8] = test: Cytotoxicity against human MCF7 cells assessed as reduction in cell viability measured after 48 hrs in presence of MMP inhibitor ilomastat by MTT assay; format: functional, cell-based
[9] = Neurotoxicity in BALB/c mouse assessed as change in vanillylmandelic acid level at 12 umol/kg, ip administered every two days for 14 days measured post last dose by LC-MS analysis; format: toxicity, organism-based; details: in vivo, 336 h, dose 12 µmol/kg, time 14 day
[10] = Neurotoxicity in BALB/c mouse assessed as change in serotonin level at 12 umol/kg, ip administered every two days for 14 days measured post last dose by LC-MS analysis; format: toxicity, organism-based; details: in vivo, 336 h, dose 12 µmol/kg, time 14 day
[11] = Toxicity in human MCF7 cells xenografted in BALB/c nude mouse assessed as morphological changes in kidney at 8 to 12 umol/kg, ip administered every two days for two weeks measured post last dose by H and E staining based histological analysis; format: organism-based; details: in vivo, 336 h, dose 8-12 µmol/kg, time 2 weeks
[12] = Drug conversion in tumor of BALB/c nude mouse xenografted with human MCF7 cells assessed as T2-PTX formation at 8 to 12 umol/kg, ip measured after 2 hrs by LC-MS analysis; format: ADME, organism-based, Neoplasm; details: in vivo, dose 8-12 µmol/kg
[13] = Toxicity in human MCF7 cells xenografted in BALB/c nude mouse assessed as morphological changes in lung at 8 to 12 umol/kg, ip administered every two days for two weeks measured post last dose by H and E staining based histological analysis; format: organism-based; details: in vivo, 336 h, dose 8-12 µmol/kg, time 2 weeks
[14] = Drug uptake in human MCF7 cells at 20 nM measured after 4 hrs in presence of MMP inhibitor ilomastat by LC-MS analysis; format: ADME, cell-based; details: mcf7, 4 h, 0.02 µM
MCF7 [15] = test: Induction of apoptosis in human MCF7 cells xenografted in ip dosed BALB/c nude mouse assessed as down regulation of Bcl2 expression administered every two days for two weeks measured post last dose by Western blot analysis; format: functional, organism-based; details: dose 8-12 µmol/kg, time 2.0 weeks
[16] = Stability of compound in PBS buffer at 0.5 uM measured after 2 hrs by LC-MS analysis; format: physicochemical
[17] = Half life in human plasma at 50 uM by LC-MS analysis; format: ADME, cell-free
[18] = Drug conversion in tumor of BALB/c nude mouse xenografted with human MCF7 cells assessed as PTX formation at 8 to 12 umol/kg, ip measured after 2 hrs by LC-MS analysis; format: ADME, organism-based, Neoplasm; details: in vivo, dose 8-12 µmol/kg
MCF7 [19] = test: Induction of apoptosis in human MCF7 cells at IC50 measured after 4 hrs by Annexin-V FITC/propidium iodide staining based flow cytometry; format: functional, cell-based
[20] = Neurotoxicity in BALB/c mouse assessed as change in noradrenaline level at 12 umol/kg, ip administered every two days for 14 days measured post last dose by LC-MS analysis; format: toxicity, organism-based; details: in vivo, 336 h, dose 12 µmol/kg, time 14 day
MCF7 [21] = test: Cytotoxicity against human MCF7 cells assessed as reduction in cell viability measured after 48 hrs in presence of MMP inhibitor ilomastat and LHRH by MTT assay; format: functional, cell-based
[22] = Drug conversion in liver of BALB/c nude mouse xenografted with human MCF7 cells assessed as T2-PTX formation at 8 to 12 umol/kg, ip measured after 2 hrs by LC-MS analysis; format: ADME, organism-based; details: in vivo, dose 8-12 µmol/kg
NCM460 = test: Cytotoxicity against human NCM460 cells assessed as reduction in cell viability measured after 48 hrs by MTT assay; format: cell-based; details: NCM460, 48 h
MCF7 [23] = test: Cell cycle arrest in human MCF7 cells assessed as increase in accumulation at G2/M-phase at IC50 measured after 4 hrs by […] flow cytometry; format: functional
MCF7 [24] = test: Antimigratory activity against human MCF7 cells at 1.8 nM measured after 48 hrs by scratch wound-healing assay; format: functional, cell-based
[25] = Neurotoxicity in BALB/c mouse assessed as change in dopamine level at 12 umol/kg, ip administered every two days for 14 days measured post last dose by LC-MS analysis; format: toxicity, organism-based; details: in vivo, 336 h, dose 12 µmol/kg, time 14 day
Erythrocyte = test: Hemolytic activity against human erythrocytes up to 80 uM measured after 1 hr; format: ADME, cell-based
[26] = Drug conversion in heart of BALB/c nude mouse xenografted with human MCF7 cells assessed as PTX formation at 8 to 12 umol/kg, ip measured after 2 hrs by LC-MS analysis; format: ADME, organism-based; details: in vivo, dose 8-12 µmol/kg
[27] = Drug uptake in human MCF7 cells at 20 nM measured after 4 hrs in presence of LHRH by LC-MS analysis; format: ADME, cell-based; details: mcf7, 4 h, 0.02 µM
[28] = Myelosuppression in BALB/c mouse assessed as change in lymphocyte count at 12 umol/kg, ip administered every two days for 14 days measured post last dose; format: ADME, organism-based; details: in vivo, 336 h, dose 12 µmol/kg, time 14 day
[29] = Drug conversion in kidney of BALB/c nude mouse xenografted with human MCF7 cells assessed as T2-PTX formation at 8 to 12 umol/kg, ip measured after 2 hrs by LC-MS analysis; format: ADME, organism-based; details: in vivo, dose 8-12 µmol/kg
A2780 = test: Cytotoxicity against human A2780 cells assessed as reduction in cell viability measured after 48 hrs by MTT assay; format: functional, cell-based; details: A2780, 48 h
HeLa = test: Cytotoxicity against human HeLa cells assessed as reduction in cell viability measured after 48 hrs by MTT assay; format: functional, cell-based
HT-29 = test: Cytotoxicity against human HT-29 cells assessed as reduction in cell viability measured after 48 hrs by MTT assay; format: functional, cell-based; details: HT-29, 48 h
[30] = Drug conversion in liver of BALB/c nude mouse xenografted with human MCF7 cells assessed as PTX formation at 8 to 12 umol/kg, ip measured after 2 hrs by LC-MS analysis; format: ADME, organism-based; details: in vivo, dose 8-12 µmol/kg
[31] = Neurotoxicity in BALB/c mouse assessed as change in glutamine level at 12 umol/kg, ip administered every two days for 14 days measured post last dose by LC-MS analysis; format: toxicity, organism-based; details: in vivo, 336 h, dose 12 µmol/kg, time 14 day

Question: Which Activity (MCF7 [1]) does the source give for `CC(=O)O[C@H]1C(=O)[C@@]2(C)[C@H]([C@H](OC(=O)c3ccccc3)[C@]3(O)C[C@H](OC(=O)[C@H](OC(=O)OCCSSC[C@H](N)C(=O)N[C@@H](CC(C)C)C(=O)N[C@@H](CC(C)C)C(=O)N[C@@H](CCCCN)C(=O)N[C@@H](CCCNC(=N)N)C(=O)N[C@@H](Cc4ccccc4)C(=O)N[C@@H](Cc4ccccc4)C(=O)N[C@@H](CCCCN)C(=O)N[C@@H](CCCCN)C(=O)N[C@@H](Cc4ccccc4)C(=O)NCC(=O)N[C@@H](C)C(=O)N[C@@H](CC(C)C)C(=O)NCC(=O)N[C@@H](CC(C)C)C(=O)N4CCC[C@H]4C(=O)NCC(=O)N4CCC[C@H]4C(=O)N[C@@H](CCCNC(=N)N)C(=O)N[C@@H](CC(C)C)C(=O)NCC(=O)N[C@@H](Cc4ccc(O)cc4)C(=O)N[C@@H](CO)C(=O)N[C@@H](Cc4c[nH]c5ccccc45)C(=O)N[C@@H](CCCCN)C(=O)NC(=O)C4CCC(=O)N4)[C@@H](NC(=O)c4ccccc4)c4ccccc4)C(C)=C1C3(C)C)[C@]1(OC(C)=O)CO[C@@H]1C[C@@H]2O` (some centres not stated) (H-C(X1)LLKRFFKKFGALGLPGPRLGYSW-X2) here?
Answer: Its Activity is 83.4%.

Question: What about the Drug metabolism [2] of the same compound?
Answer: The Drug metabolism was “Metabolite_Detected”.

Question: What about the pIC50 [3] of the same compound?
Answer: Its pIC50 is 6.10.

Question: And the Drug metabolism [4]?
Answer: The Drug metabolism was “Metabolite_Notdetected”.

Question: What about the Drug metabolism [5] of the same compound?
Answer: The Drug metabolism was “Metabolite_Notdetected”.

Question: And the Drug uptake [6]?
Answer: The Drug uptake was “Active”.

Question: And the Activity (MCF7 [7])?
Answer: The Activity was “Active”.

Question: And the pIC50 (HEK293)?
Answer: The pIC50 was 7.18.

Question: And the Activity (MCF7 [8])?
Answer: Its Activity is “inactive”.

Question: And the Activity [9]?
Answer: The Activity was “Non-Toxic”.

Question: And the Activity [10]?
Answer: Its Activity is “Non-Toxic”.

Question: And the Activity [11]?
Answer: Its Activity is “Non-Toxic”.

Question: And the Drug metabolism [12]?
Answer: The Drug metabolism was “Metabolite_Detected”.

Question: What about the Activity [13] of the same compound?
Answer: The Activity was “Non-Toxic”.

Question: What about the Drug uptake [14] of the same compound?
Answer: Its Drug uptake is “Active”.

Question: What about the Activity (MCF7 [15]) of the same compound?
Answer: The Activity was “Dose-dependent effect”.

Question: What about the Stabilty [16] of the same compound?
Answer: The Stabilty was “Stable”.

Question: What about the half-life at 50 µM [17] of the same compound?
Answer: Its half-life at 50 µM is 2 h.

Question: What about the Drug metabolism [18] of the same compound?
Answer: Its Drug metabolism is “Metabolite_Detected”.

Question: What about the Activity (MCF7 [19]) of the same compound?
Answer: The Activity was “Active”.

Question: And the Activity [20]?
Answer: The Activity was “Non-Toxic”.

Question: And the Activity (MCF7 [21])?
Answer: Its Activity is “inactive”.

Question: And the Drug metabolism [22]?
Answer: The Drug metabolism was “Metabolite_Notdetected”.

Question: What about the pIC50 (NCM460) of the same compound?
Answer: Its pIC50 is less than 7.10.

Question: What about the Activity (MCF7 [23]) of the same compound?
Answer: Its Activity is “Active”.

Question: What about the Activity (MCF7 [24]) of the same compound?
Answer: Its Activity is “Active”.

Question: And the Activity [25]?
Answer: Its Activity is “Non-Toxic”.

Question: What about the Activity (Erythrocyte) of the same compound?
Answer: The Activity was “Non-Toxic”.

Question: And the Drug metabolism [26]?
Answer: Its Drug metabolism is “Metabolite_Notdetected”.

Question: And the Drug uptake [27]?
Answer: The Drug uptake was “Active”.

Question: What about the Activity [28] of the same compound?
Answer: Its Activity is “Non-Toxic”.

Question: And the Drug metabolism [29]?
Answer: Its Drug metabolism is “Metabolite_Notdetected”.

Question: What about the pIC50 (A2780) of the same compound?
Answer: Its pIC50 is 8.08.

Question: And the pIC50 (HeLa)?
Answer: The pIC50 was 7.69.

Question: And the pIC50 (HT-29)?
Answer: The pIC50 was 8.25.

Question: What about the Drug metabolism [30] of the same compound?
Answer: The Drug metabolism was “Metabolite_Notdetected”.

Question: And the Activity [31]?
Answer: Its Activity is “Non-Toxic”.

Reference: ChEMBL document CHEMBL4732115, “Discovery of novel cell-penetrating and tumor-targeting peptide-drug conjugate (PDC) for programmable delivery of paclitaxel and cancer treatment” (Eur J Med Chem, 2021)
